Assays:
[1] = Metal-ion selectivity measurement (emission-ratiometric response); format: physicochemical; settings: liposomes, pH 7.0
Method: FIG. 5C illustrates an exemplary table providing exemplary photophysical properties of Formula I, Formula II, and/or a derivative thereof (e.g., for example probe 8) and its Zn(II)-probe complex in PIPES buffer containing 100 μM of 4:1 DMPC:DMPG liposomes (pH 7.0, 10 mM PIPES, 0.1 M KCl, 25° C.). The fluorescence response of the probe 8 (10 PM) was measured in the presence of 100 μM 4:1 DMPC:DMPG liposomes (pH 7.0, 10 mM PIPES, 0.1 M KCl, 25° C.) and an excess of selected biologically relevant divalent metal ions (FIG. 5A). […]
A solution of Formula I, Formula II, and/or a derivative thereof (e.g., for example probe 8) (10 μM) in Chelex®-PIPES buffer (10 mM, 0.1 M KCl, pH 7.0, 25° C.) containing 100 μM of liposomes (4:1 mixture of DMPC and DMPG) prepared in a quartz cuvette with a 1-cm pathlength. A fluorescence spectrum was acquired over the spectral window of 415-700 nm with excitation at 405 nm. Under magnetic stirring, the solution was supplemented with each divalent metal cation (8.0 μM, which corresponds to 80% fractional saturation of the probe, or 2.0 mM Ca(II) and Mg(II) ions), and a fluorescence spectrum was immediately acquired. […] The fluorescence spectrum was acquired after 10 min equilibration to ensure complete formation of the probe 8 Zn(II)-complex. […]

[2] = Fluorometric Zn(II) titration in PIPES buffer with DMPC:DMPG liposomes; format: physicochemical; settings: pH 7.0 buffer, 100 μM liposomes, excitation at 405 nm
Method: To investigate the capability of Formula I, Formula II, and/or a derivative thereof (e.g., for example probe 8) as a dual-mode excitable Zn(II)-selective fluorescent indicator, fluorometric Zn(II)-titrations were performed with excitation at 405 nm. Comprehensive spectroscopic analysis of Formula I, Formula II, and/or a derivative thereof (e.g., for example probe 8) was performed in the presence of liposomes as a biological model-membranes composed of a 4:1 ratio of zwitterionic dimyristoyl […] (DMPC) and anionic dimyristoyl phosphatidylglycerol (DMPG). The probe was directly diluted from a DMSO stock solution into the pH 7.0 buffer containing 100 μM liposomes. […]
A solution of Formula I, Formula II, and/or a derivative thereof (e.g., for example probe 8) (10 μM) in analytical grade MeOH prepared in a quartz cuvette with a 1-cm pathlength was titrated with Zn(OTf)2 (from a 0.3 mM aqueous stock solution) in 1.0 μM (0.1 molar equiv.) increments. After each aliquot of Zn(II), the solution was equilibrated for 1 minute by magnetic stirring, and an absorbance (spectral window: 250-500 nm) and fluorescence spectrum (excitation at 395 nm, spectral window 405-705 nm) were acquired. […] After each aliquot of Zn(II), the solution was equilibrated for 1 minute by magnetic stirring, and a fluorescence spectrum (excitation: 405 nm, spectral window 420-700 nm) was acquired.

With `COc1ccc2c(c1)C(C)(C)c1nc(-c3cccc(CN(Cc4ncccn4)Cc4ncccn4)n3)sc1-2` [probe 8] the “fluorescence response to Ca(II) and Mg(II)” value ([1]; 2.0 mM of either metal ion) was “Neither Ca(II) nor Mg(II) resulted in any significant fluorescence change”, the “fluorescence response to divalent transition metals” value ([1]; 0.8 molar equivalents of metal, 10 μM probe) was “quenching of the fluorescence” and the emission maximum ([2]; after Zn(II) addition) was 515 nm. It also gave an emission maximum ([2]; free probe) of 480 nm.

From US20240410831A1, “Multi-Mode Zinc-Selective Emission-Ratiometric Fluorescent Probes for Biological Application” (Georgia Tech Research Corporation, priority 2023, published 2024)
